Patent US10266823B2, “Small molecules that enhance the activity of oligonucleotides” (The University of North Carolina at Chapel Hill, priority 2014, dated 2019)

Tests used:
[1] = test system: HeLaLuc705 cells; assay: SSO623-mediated luciferase induction (splice correction), 24 well format; assay type: cell-based, human; conditions: for enhancement of luciferase induction as compared to SSO alone: 2 h, 100 nM SSO623
Procedure: FIG. 1B. SSO Dose-response of hit compounds. Selected hits were examined for their ability to enhance splice correction by SSO623 in the HeLa Luc 705 cell system. Cells were incubated in 24 well plates with 100 nM 623 or its mismatched control (MM) for 16 h in DMEM+10% FBS, rinsed, and then treated with various concentrations of the hit compounds, or with 100 uM Retro-1, for 2 h. The cells were then rinsed and incubation continued for an additional 4 h in DMEM+10% FBS. Cells were rinsed twice in PBS and luciferase activity (RLU) and cell protein determined. Means+/−SE. N=3. Mismatched controls were at baseline level on this scale and are not shown.
(§1) Luciferase induction dose-response curves in a 24 well plate format with normalization on cell protein were performed as previously described (Alam, M. R. et al., Nucleic Acids Res, 36, 2764-2776 (2008), Ming, X., et al., Nucleic Acids Res, 38, 6567-6576 (2010)). Splicing modulation of the EGFP654 reporter and of endogenous Bcl-X were monitored by RT-PCR using appropriate primers. Evaluation of hit compound effects on antisense actions involved ‘knockdown’ of MDR1 pre-mRNA and its protein product in multi-drug resistant mouse 3T3 cells. Cell surface expression of P-glycoprotein was monitored using an Alexa-488 conjugated monoclonal antibody and flow cytometry as previously described (Ming, X. et al., Nucleic Acids Res, 41, 3673-3687 (2013), Fisher, M., et al., Nucleic Acids Res, 35, 1064-1074 (2007)). Evaluation of effects on siRNA utilized a HeLa cell line stably transfected with an EGFP expression cassette. Cholesterol-conjugated siRNAs were used to attain sufficient uptake. Cells were incubated with the siEGFP or control siRNA, rinsed, and then briefly exposed to hit compound. After further incubation expression of EGFP was monitored by flow cytometry. In cases where treatment with Lipofectamine 2000 was used as a positive control, the manufacturer's protocol was followed.

[2] = test system: A375Luc705 cells; assay: Luciferase induction by RGD-SSO-albumin conjugate; assay type: cell-based, human; conditions: 2 h, 100 nM RGD-SSO-albumin conjugate
Procedure: FIG. 2. Effects on Receptor-Targeted oligonucleotides. A375Luc705 cells were treated with 100 nM RGD-SSO-albumin conjugate for 16 h and subsequently treated with Retro-1 (100 uM) or 7938 (5, 10 uM) for 2 h. After removal of the compound the cells were incubated for a further 24 h and then assayed for luciferase and cell protein. (A) Control; (B) RGD-SSO conjugate only; (C) RGD-SSO conjugate plus Retrol; (D) RGD-SSO conjugate plus 5 uM 7938; (E) RGD-SSO conjugate plus 10 uM 7938. Means+/−SE. N=3.
Our laboratory has pursued the use of ligand-oligonucleotide conjugates to attain receptor-selective targeted delivery (Alam, M. R., et al., Bioconjugate chemistry, 22, 1673-1681 (2011), Ming, X., et al., Biomaterials, 34, 7939-7949 (2013), Nakagawa, O., et al., Bioconjugate chemistry, 25, 165-170 (2014)). Thus we were interested in whether our compounds would affect oligonucleotides that enter cells by receptor-mediated endocytosis. We used a previously described (Ming, X., et al., Biomaterials, 34, 7939-7949 (2013)) multivalent conjugate comprised of several RGD peptide-conjugated morpholino SSOs further conjugated via bioreversible links to serum albumin as a carrier. […] We examined luciferase induction in αvβ3-expressing A375 melanoma cells that contain the Luc705 expression cassette. […] Thus 7938 can substantially enhance effects of receptor targeted oligonucleotide conjugates. […]

[3] = test system: P-glycoprotein multidrug transporter in multi-drug resistant 3T3 cells; assay: Antisense knockdown of P-glycoprotein (anti-MDR1 ASO), flow cytometry; assay type: cell-based, mouse
Procedure: as §1, with “followed. […]” for “followed.”

[4] = test system: HeLa cell line stably transfected with an EGFP expression cassette; assay: Cholesterol-conjugated siEGFP reduction of EGFP, flow cytometry; assay type: cell-based, human; conditions: cholesterol-conjugated siRNA
Procedure: as §1

[5] = test system: HeLa cells; assay: Live cell confocal microscopy: subcellular distribution of TAMRA oligonucleotide and organelle markers; assay type: cell-based, human
Procedure: FIG. 3A: Effects on Cell Morphology and Subcellular Distribution of Oligonucleotide: Quantitation of Colocalization. HeLa cells were transfected with baculovirus expression vectors for GFP-Rab7a (late endosome marker) or GFP-LAMP-1 (lysosome marker). The cells were then incubated with 300 nM SSO 623-TAMRA for 16 h. Cells were then treated with 10 uM 7938 for 1 h or maintained as controls. Live cells were imaged using a confocal microscope with environmental stage. Co-localization of GFP and TAMRA oligonucleotide was quantitated using the Image J Coloc2 plug-in and expressed as the Manders correlation coefficient. Individual cells were analyzed and the data summated. Means and standard errors shown. N=9-20. ** represents p<0.002 compared to Rab 7 control.
FIG. 3B. Effects on Cell Morphology and Subcellular Distribution of Oligonucleotide: Nuclear Accumulation. TAMRA fluorescence intensity in the nucleus was quantitated using Image J. Means and standard errors shown. N=55-70. *** represents p<0.001 compared to Control.
Quantitative live cell confocal microscopy (Dunn, K. W., et al., Am J Physiol Cell Physiol, 300, C723-742 (2011)) was performed to examine the subcellular distribution of fluorescent oligonucleotide or of certain markers for endomembrane compartments. Cells (HeLa) were transfected with baculovirus expression vectors for GFP chimeras of marker proteins for several endomembrane compartments. The day following transfection, cells were incubated for 4 h with 300 nM TAMRA conjugated SSO 623 in OptiMEM after which the cells were washed and incubated in DMEM medium with 1% FBS. In some cases hit compounds were added during or after the incubation. Cells were imaged on an Olympus FV1000 MPE laser scanning confocal microscope with environmental chamber to maintain 37 C, 40% humidity and 5% C02. We used 488 nm (GFP) and 559 nm (TAMRA) as laser lines, and images were collected with a 60× oil immersion lens. Quantitation of co-localization of oligonucleotide and marker proteins utilized the Coloc2 plug-in in Image J. In some cases GFP markers for organelles were examined in cells previously fixed in 4% formaldehyde in PBS.

[6] = test system: EGFP654 transgenic mouse; assay: In vivo splice correction in EGFP654 transgenic mouse
From the text: FIG. 4. In vivo effects: Quantitation of RT-PCR. Gel bands were quantitated using a Typhoon imaging system. Percent of switching is the ratio of lower band to upper band ×100. *** difference from PBS control significant at the 0.001 level.
(§2) All animal procedures were in accordance with guidelines of the UNC Laboratory Animal Medicine Department and with federal guidelines. The EGFP654 transgenic mouse has been described previously (Sazani, P., et al., Nature biotechnology, 20, 1228-1233 (2002), Roberts, J., et al., Mol Ther, 14, 471-475 (2006)). A reporter gene comprised of the EGFP coding sequence is interrupted by an aberrantly spliced intron. Delivery of an appropriate SSO to the nucleus of tissue cells will correct splicing leading the expression of normal EGFP mRNA and protein. EGFP654 mice were administered 25 mg/kg SS0623 or mis-matched oligonucleotide in PBS by intra-peritoneal injection on two consecutive days. One day later the mice received 7.5 mg/kg UNC10217938A intravenously in a diluent of 5% PEG400, or diluent only. After 24 h the mice were euthanized and cardiac blood and tissues samples collected. Tissues for fluorescence microscopy to visualize EGFP were fixed in cold 1.5% paraformaldehyde in PBS and then processed for cryosectioning (Sazani, P., et al., Nature biotechnology, 20, 1228-1233 (2002)). Tissues for RNA analysis were collected from mice euthanized at 4 h and ere quick frozen on dry ice. All procedures involving live animals were conducted by the UNC Animal Studies Core facility. Blood samples were analyzed by the UNC Animal Clinical Chemistry Core facility.
In the EGFP654 transgenic line a reporter gene comprised of the EGFP coding sequence is interrupted by an aberrantly spliced intron. Effective delivery of an appropriate SSO to the nucleus of tissue cells will correct splicing leading to expression of normal EGFP mRNA and protein in that tissue. We visualized EGFP expression by fluorescence microscopy of tissue cryosections and evaluated correction of EGFP pre-mRNA splicing by RT-PCR. […]

[7] = test system: EGFP654 mice; assay: Acute toxicity, blood chemistry parameters in EGFP654 mice; assay type: in vivo, mouse; conditions: 7.5 mg/kg i.v.; data not shown
From the text: as §2

[8] = test system: C57BL/6 mice; assay: 7 day toxicity study; assay type: in vivo; conditions: doses that overlap those of FIG. 4, data not shown
[9] = test system: HeLaLuc705 cells; assay: High throughput screen, SSO623 luciferase induction, 384 well; assay type: cell-based, human; conditions: library compounds at 25 uM, 5 h; 100 nM SSO623
Procedure: Our high throughput screen (HTS) utilized HeLaLuc705 cells. Delivery of an appropriate SSO to the nucleus corrects splicing and induces luciferase expression thus providing an easily interpreted positive readout (Iam, M. R. et al., Nucleic Acids Res, 36, 2764-2776 (2008), Ming, X., et al., Nucleic Acids Res, 38, 6567-6576 (2010)). Cells were trypsinized, rinsed, and suspended in Opti-MEM at 300,000 cells/ml; SSO623 was added to a final concentration of 100 nM. No lipid or polymer transfection agents were used in these assays. Opti-MEM (15 ul) followed by cell suspension (20 ul) was added to wells of 384 well plates. Cells were allowed to attach and incubate with the SSO for 16 h. During this 16 h period a set of positive control wells received chloroquine to a final concentration of 300 uM while a set of negative control wells received diluent. After the initial incubation the remaining wells received library compounds to a final concentration of 25 uM. Incubation with library compounds was at 37 C for 5 h at which time the cells were harvested and analyzed for luciferase induction. Library compounds that produced an induction of 50% that of the positive controls were considered positive in this assay and were further analyzed. Dose-response curves were developed comparing SSO623 with a mis-matched oligonucleotide. […]

[10] = 10 uM, 1 h, Manders correlation coefficient

Row | SMILES | enhancement of luciferase induction as compared to SSO alone ([1]; 100 uM compound) [fold] | ability of the conjugate to induce luciferase ([2]; 100 uM compound) | enhancement of luciferase induction as compared to SSO alone ([1]; 10 uM compound) [fold] | enhancement of luciferase induction as compared to SSO alone ([1]; 20 uM compound) [fold] | amount of SSO at which strong induction effects were observed ([1]; SSO varied, constant concentration of compound) [nM] | amount of ASO at which strong effects were observed ([3]; ASO varied, constant concentration of compound) [nM] | enhancement of ASO action (P-glycoprotein knockdown) ([3]; anti-MDR1 ASO, data not shown) | ability of siEGFP to reduce levels of EGFP [4] | ability of the conjugate to induce luciferase ([2]; 5 or 10 uM compound, compared with 100 uM Retro-1) | co-localization of TAMRA-oligonucleotide with late endosome marker Rab7 [5, 10] | co-localization of TAMRA-oligonucleotide with lysosomal marker LAMP-1 [5, 10] | accumulation of Tamra-oligonucleotide in the nucleus ([5]; TAMRA fluorescence intensity in the nucleus) | release of fluorescent dextran from endosomes ([5]; dextran of molecular mass similar to an oligonucleotide, data not shown) | EGFP fluorescence in liver, kidney and heart ([6]; SS0623 25 mg/kg i.p. on two days, then 7.5 mg/kg compound i.v., 24 h) | correction of EGFP pre-mRNA splicing by RT-PCR in liver, kidney and heart ([6]; SS0623 followed by compound, RNA at 4 h) | EGFP induction in skeletal muscle ([6]; SS0623 followed by compound, data not shown) | acute toxicity (blood chemistry parameters) [7] | toxicity [8] | activity in high throughput screen [9]
1 | CCC(=O)N1CC(=O)Nc2ccc(Br)cc2C1c1ccccc1 (stereo not shown) [Retro-1, reference compound] | 11 | increased |  |  |  |  |  |  |  |  |  |  |  |  |  |  |  |  | 
2 | CCOC(=O)Nc1cc(NCCN(C)C)c2nc(-c3ccccc3)c(-c3ccccc3)nc2n1 [compound 7938] |  |  | 60 | 220 | 3 | 5 | strongly enhanced | enhanced | far larger impact | major reduction | little effect | increase | partially released | distinct increases | correctly spliced EGFP message was found | not strongly affected | did not result in acute toxicity | no significant evidence of toxicity | active
